According to patent publication US20160177395A1, “BIOMARKERS FOR THE PREDICTION OF RENAL INJURY” (priority 2007, published 2016):
Values joined by “and” are separate entries in the source; they are usually repeats but may differ in a detail not shown here. Equal values may be shown once.

Tested on: kidney tissues of treated or untreated rats
Test: Real-time qRT-PCR of marker transcripts in kidney tissue panel, discovery stage (Table 22)
Type: in vivo, rat
Design: AI502869_DB71_seg0 normalized Real Time PCR expression: unit not given beside the values
Conditions: listed as CadCl; for normalized Real Time PCR RATRAB13X_DB81_seg15-17 / normalized Real Time PCR RATRAB13X_DB81_seg22 / normalized Real Time PCR W33294_DB81_seg23 / normalized Real Time PCR W33294_DB81_seg44 / normalized Real Time PCR MMU09507_DB81_seg15 / normalized Real Time PCR MUSCYCG1R_DB81_seg19-20: kidney
Protocol: Before RT preparation the RNA was treated with DNA-free (Ambion, cat. No. AM1906) DNase treatment and removal—according to manufacturer protocol. DNase procedure was repeated until no DNA is detected in a PCR reaction using the RNA samples.
The mixture is then incubated for 5 min at 65° C. and then quickly chilled on ice. Thereafter, 20 μl of 5× SuperscriptII first strand buffer (Invitrogen, Cat. No. Y00146), 9.6 μl 0.1M DTT (Invitrogen, Cat. No. Y00147) and 160 units RNasin (Promega, Cat. No. N251A) are added, and the mixture is incubated for 10 min at 25° C., followed by further incubation at 42° C. for 2 min. […] The resulting cDNA is diluted 1:20 in TE buffer (10 mM Tris pH=8, 1 mM EDTA pH=8).
cDNA (5 μl), prepared as described above, is used as a template in Real-Time PCR reactions using the SYBR Green I assay (PE Applied Biosystem) with specific primers in 100 nM concentration if not indicated otherwise and UNG Enzyme (Eurogentech or equal) Amplification is effected as follows: 50° C. for 2 min, 95° C. for 10 min, and then 40 cycles of 95° C. for 15 sec, followed by 60° C. for 1 min (if not indicated otherwise). Amplification step is followed by dissociation step. Detection is performed by using the PE Applied Biosystem SDS 7000. The cycle in which the reactions achieved a threshold level (Ct) of fluorescence is registered and is used to calculate the relative transcript quantity in the RT reactions. Non-detected samples are assigned Ct value of 41 and are calculated accordingly. The relative quantity is calculated using the equation Q=efficiencŷ-Ct. The efficiency of the PCR reaction is calculated from a standard curve, created by using serial dilutions of several reverse transcription (RT) reactions. To minimize inherent differences in the RT reaction, the resulting relative quantities are normalized to normalization factor calculated as follows: […]
The relative quantity (Q) of each housekeeping gene in each sample is calculated as described above. In order to calculate the “relative Q relative to MED” each Q for each HSKP gene is divided by the median quantity of this gene in all panel samples. To finally achieve the normalization factor of each sample the geometric mean of all four “relative Q relative to MED” was calculated. The normalization factor was then used for further calculations.
The markers of the present invention were tested with regard to their expression in a panel of kidney tissues samples from treated and control rats. Unless otherwise noted, all experimental data relates to the novel polynucleotides and proteins of the present invention, named according to the segment being tested (as expression was tested through RT-PCR as described). Tests were then performed as described in the “Materials and Experimental Procedures” section above.
The qRT-PCR measurements were normalized according to each samples normalization factor as described in “RT Preparation and Real-Time qRT-PCR Analysis” and further multiplied by a constant factor for ease of viewing.

[1] = rat kidney, day1, individual animals (F and M)
[2] = rat kidney, day1, individual animals
[3] = rat kidney, day5, individual animals (F and M)

## [Cl][Cd][Cl] [Cadmium chloride]
Female rats, day1
  normalized Real Time PCR RATRAB13X_DB81_seg15-17: 1.63 and 1.8 and 1.55
  normalized Real Time PCR RATRAB13X_DB81_seg22: 1.73 and 1.83 and 1.16
  normalized Real Time PCR W33294_DB81_seg23: 1.9 and 1.74 and 1.36
  normalized Real Time PCR W33294_DB81_seg44: 1.79 and 1.39 and 1.57
Female rats, day5
  normalized Real Time PCR MMU09507_DB81_seg15: 0.87 and 0.56
  normalized Real Time PCR MUSCYCG1R_DB81_seg19-20: 1.21 and 1.01
  normalized Real Time PCR RATRAB13X_DB81_seg15-17: 1.81 and 0.97
  normalized Real Time PCR RATRAB13X_DB81_seg22: 1.56 and 1.1
  normalized Real Time PCR W33294_DB81_seg23: 1.76 and 1.7
  normalized Real Time PCR W33294_DB81_seg44: 2.05 and 1.37
Female rats, day28
  normalized Real Time PCR MUSCYCG1R_DB81_seg19-20: 0.54 and 0.62 and 0.56
  normalized Real Time PCR RATRAB13X_DB81_seg15-17: 0.83 and 0.89 and 0.82
  normalized Real Time PCR RATRAB13X_DB81_seg22: 0.7 and 0.9 and 0.46
  normalized Real Time PCR W33294_DB81_seg23: 0.94 and 0.97 and 0.85
  normalized Real Time PCR W33294_DB81_seg44: 0.88 and 0.69 and 0.7
Male rats, day1
  normalized Real Time PCR MUSCYCG1R_DB81_seg19-20: 0.58 and 1.03 and 0.78
  normalized Real Time PCR RATRAB13X_DB81_seg15-17: 0.73 and 0.92 and 1.01
  normalized Real Time PCR RATRAB13X_DB81_seg22: 0.92 and 1.29 and 0.67
  normalized Real Time PCR W33294_DB81_seg23: 0.62 and 0.31 and 0.37
Male rats, day5
  normalized Real Time PCR MMU09507_DB81_seg15: 0.33 and 0.49 and 0.38
  normalized Real Time PCR MUSCYCG1R_DB81_seg19-20: 1.22 and 1.12 and 1.04
  normalized Real Time PCR RATRAB13X_DB81_seg15-17: 1.18 and 0.88 and 1.07
  normalized Real Time PCR RATRAB13X_DB81_seg22: 1.65 and 1.58 and 1.21
  normalized Real Time PCR W33294_DB81_seg23: 1.41 and 1.45 and 1.03
  normalized Real Time PCR W33294_DB81_seg44: 1.32 and 1.43 and 1.42
Male rats, day28
  normalized Real Time PCR MMU09507_DB81_seg15: 0.42 and 0.45
  normalized Real Time PCR RATRAB13X_DB81_seg22: 0.63 and 0.87 and 0.49
  normalized Real Time PCR W33294_DB81_seg23: 0.7 and 0.65
  normalized Real Time PCR W33294_DB81_seg44: 0.73 and 0.53
[1]
  H33998_DB71_seg19 normalized Real Time PCR: 2.29 and 2.51 and 0.01 and 0.76 and 0.66 and 0.69
  MUSCYCG1R_DB81_seg15-17 normalized Real Time PCR: 1.91 and 1.36 and 1.68 and 0.61 and 0.73 and 0.36
  RATLRFI_DB71_seg9 normalized Real Time PCR: 0.27 (2×) and 0.33 and 0.32 and 0.36 and 0.23
  RATRAB13X_DB71_seg11-13 normalized Real Time PCR: 0.95 (2×) and 1.2 and 1.05 and 1.22 and 1.14
  RNU24174_DB71_seg8 normalized Real Time PCR: 0.3 and 0.29 and 0.49 and 0.2 and 0.4 and 0.22
  W41270_DB81_seg11 normalized Real Time PCR: 1.44 and 1.78 and 1.48 and 0.5 and 0.62 and 0.43
  W64472_DB81_seg2 normalized Real Time PCR: 1.07 (2×) and 1.1 and 0.55 and 1.45 and 0.41
  W83813_DB81_seg27 normalized Real Time PCR: 2.07 and 2.19 and 1.66 and 0.47 and 0.51 and 0.65
[2]
  AA686189_DB71_seg6 normalized Real Time PCR expression: 0.38 (2×) and 0.52 and 0.36 and 0.59 and 0.64
  AA799594_DB71_seg0 normalized Real Time PCR expression: 1.25 and 1.43 and 1.27 and 1.09 and 1.15 and 1.05
  AA964541_DB71_seg0 normalized Real Time PCR expression: 0.41 and 0.55 and 0.3 and 0.28 and 0.6 and 0.56
  AI045075_DB71_seg6 normalized Real Time PCR expression: 0.6 and 0.54 and 0.5 and 0.66 and 0.87 and 0.84
  AI454051_DB71_seg0 normalized Real Time PCR expression: 1.47 and 1.46 and 1.08 and 1.48 and 2.13 and 0.77
  AI502869_DB71_seg0 normalized Real Time PCR expression: 0.54 and 1.37 and 0.56 and 1.14 and 2.59 and 0.86
  AW919147_DB71_seg0 normalized Real Time PCR expression: 1 (2×) and 1.21 and 0.76 and 1.1 and 1.02
  BI293562_DB71_seg2 normalized Real Time PCR expression: 0.36 and 0.4 and 0.61 and 0.5 and 0.51 and 0.39
  H31045_DB71_seg5 normalized Real Time PCR expression: 1.97 and 0.39 (2×) and 0.19 (2×) and 0.18
  H31799_DB71_seg23 normalized Real Time PCR expression: 1 (2×) and 1.24 and 0.91 and 0.9 and 1.15
  H31883_DB71_seg13 normalized Real Time PCR expression: 0.73 and 0.63 and 0.87 and 0.65 and 0.71 and 0.78
[3]
  H33998_DB71_seg19 normalized Real Time PCR: 2 and 0.82 and 1.39 and 1.36 and 1.64
  MUSCYCG1R_DB81_seg15-17 normalized Real Time PCR: 1.72 and 1.13 and 1.2 and 0.97 and 1.15
  RATLRFI_DB71_seg9 normalized Real Time PCR: 0.35 and 0.31 and 0.17 and 0.18 and 0.29
  RATRAB13X_DB71_seg11-13 normalized Real Time PCR: 0.95 and 0.9 and 0.75 (2×) and 0.62
  RNU24174_DB71_seg8 normalized Real Time PCR: 0.33 and 0.27 and 0.12 (2×) and 0.13
